Test: Metabolic transformation of TAC and MAC in vivo (MALDI-MS of mouse urine)
Parameters: species or system mice
Settings: for metabolic degradation in vivo: mice given TAC/MAC liposomes
Text: One of the components of in vivo biodistribution study of TAC/MAC liposomes in mice was identification of any metabolic transformation of either TAC or MAC in the body. Metabolic degradation of TAC was not observed in vivo. […] Three main metabolites of MAC were identified in mouse urine by matrix-assisted laser desorption […] mass spectrometry (MALDI-MS) analysis and are illustrated in FIG. 4.

metabolic degradation in vivo | main metabolites identified in mouse urine (MALDI-MS) | Substance
not observed |  | Na3[1-(2′-B10H9)-2-NH3B10H8] [TAC]
expelled without change | Three | K[nido-7-CH3(CH2)15-7,8-C2B9H11] [MAC]

Source: US20170007700A1, “COMPOSITIONS AND METHODS FOR BORON NEUTRON CAPTURE THERAPY” (THE CURATORS OF THE UNIVERSITY OF MISSOURI, priority 2014, published 2017)
